According to PubChem BioAssay (NCI):
Several values for one entry are separate records, joined by “and”; a condition that tells them apart may be missing. Equal values may be shown once.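 Tested at 5 concentrations; 48 h exposure; 96-well plates; endpoints linearly interpolated, else capped at highest concentration. GI50 is the concentration that inhibits growth by half. TGI: concentration producing complete growth inhibition.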

How the values were obtained:
Experiment in all cases: DTP human tumour cell line panel, 48 h
[1] = system: DU-145 prostate
[2] = system: EKVX NSCLC
[3] = system: HS 578T breast
[4] = system: HT29 colon
[5] = system: LOX IMVI melanoma
[6] = system: M14 melanoma
[7] = system: NCI-H226 lung
[8] = system: OVCAR-3 ovarian
[9] = system: OVCAR-8 ovarian
[10] = system: SR leukemia

In the case of `Cc1cc(-c2nc(C(=O)Nc3cc4oc(N5CCOCC5)nc4nc3N3CC[C@@H](O)C3)co2)ccn1`, the GI50 [1] is reported as 46.9 µM, the TGI [1] is reported as over 100 µM and the GI50 [2] is reported as over 100 µM. The TGI [2] was over 100 µM, the GI50 [3] was 22.2 µM and the TGI [3] was over 100 µM. The GI50 [4] was over 100 µM, the TGI [4] was over 100 µM and the GI50 [5] was 39.9 µM. For the same molecule, the TGI [5] was over 100 µM, the GI50 [6] was 35.9 µM and the TGI [6] was over 100 µM. It also gave a GI50 [7] of over 100 µM, a TGI [7] of over 100 µM and a GI50 [8] of 27 µM. It also gave a TGI [8] of over 100 µM, a GI50 [9] of 38.7 µM and a TGI [9] of over 100 µM. It also gave a GI50 [10] of 30.9 µM and a TGI [10] of over 100 µM.
Molecule `Cn1cc(C2=C(c3c4n(c5ccccc35)CCCCC4)C(=O)NC2=O)c2ccccc21` has a GI50 [1] of 5.4 µM, a TGI [1] of over 17.3 µM and a GI50 [3] of 1.7 µM. It also gave a TGI [3] of 19.8 µM, a GI50 [4] of 2.57 µM and a TGI [4] of over 25 µM. For the same molecule, the GI50 [5] was 9.4 µM, the TGI [5] was over 25 µM and the GI50 [6] was 4.69 µM. It also gave a TGI [6] of over 25 µM, a GI50 [7] of 12 µM and a TGI [7] of over 25 µM. The GI50 [8] was 1.21 µM, the TGI [8] was 8.05 µM and the GI50 [9] was 10.7 µM. It also gave a TGI [9] of over 25 µM, a GI50 [10] of 1.19 µM and a TGI [10] of over 20.9 µM.
For `O=C(Nc1ccccc1)c1c(O)[nH]c(=S)[nH]c1=O`, the TGI [1] was 103 µM, the GI50 [2] was 120 µM and the TGI [2] was 103 µM and > 250 µM. For the same molecule, the TGI [3] was 74.3 µM, the GI50 [4] was 93.5 µM and the TGI [4] was 125 µM and > 250 µM. The GI50 [5] was 54 µM, the TGI [5] was 73.6 µM and > 250 µM and the TGI [6] was 108 µM. For the same molecule, the TGI [7] was 107 µM, the GI50 [8] was 10.9 µM and the TGI [8] was 74.8 µM and 71.3 µM. The GI50 [9] was 41.3 µM, the TGI [9] was 76.7 µM and > 250 µM and the TGI [10] was 53.8 µM.
`COc1cccc(-c2cc(-c3cccc(NS(C)(=O)=O)c3)nc(N)c2C#N)c1O` gave a GI50 [1] of 0.182 µM, a TGI [1] of over 100 µM and a GI50 [2] of 0.561 µM. For the same molecule, the TGI [2] was over 100 µM, the GI50 [3] was 0.0901 µM and the TGI [3] was 4.42 µM. The GI50 [4] was 0.0924 µM, the GI50 [5] was 0.136 µM and the TGI [5] was over 100 µM. It also gave a GI50 [6] of 0.0837 µM, a TGI [6] of over 100 µM and a GI50 [7] of 0.372 µM. The TGI [7] was over 100 µM, the GI50 [9] was 0.351 µM and the TGI [9] was over 100 µM. The GI50 [10] was 0.0562 µM and the TGI [10] was over 100 µM.
Work on `COc1cc2c(c(OC)c1OC)-c1ccc(NNC(N)=S)c(=O)cc1[C@@H](NC(C)=O)CC2` yielded a GI50 [1] of 0.341 µM, a TGI [1] of 1.44 µM and a GI50 [2] of 3.67 µM. It also gave a TGI [2] of over 100 µM, a TGI [3] of over 100 µM and a GI50 [4] of 0.365 µM. It also gave a TGI [4] of over 100 µM, a GI50 [5] of 0.687 µM and a TGI [5] of over 100 µM. For the same molecule, the GI50 [6] was 0.284 µM, the TGI [6] was 0.735 µM and the TGI [7] was over 100 µM. The GI50 [8] was 0.238 µM, the TGI [8] was 0.623 µM and the GI50 [9] was 0.863 µM. For the same molecule, the TGI [9] was over 100 µM, the GI50 [10] was 0.279 µM and the TGI [10] was over 100 µM.
For `C=CCOc1ccc2c(C)cc(=O)oc2c1C`, the TGI [1] was over 100 µM, the TGI [2] was over 100 µM and the TGI [3] was 77.1 µM. The TGI [4] was over 100 µM, the TGI [5] was over 100 µM and the TGI [6] was over 100 µM. For the same molecule, the TGI [7] was over 100 µM, the TGI [8] was over 100 µM and the TGI [9] was over 100 µM. The TGI [10] was over 100 µM.
`Fc1[nH]nc2ccc([C@@H]3Nc4ccc5[nH]ncc5c4[C@H]4C5CCC(C5)[C@@H]34)cc12` (some centres not stated) gave a GI50 [1] of 3.22 µM, a TGI [1] of 14.9 µM and a GI50 [2] of 2.39 µM. The TGI [2] was 17.4 µM, the GI50 [3] was 1.4 µM and the TGI [3] was 13.6 µM. The GI50 [4] was 0.439 µM, the TGI [4] was 12.8 µM and the GI50 [5] was 0.768 µM. The TGI [5] was 14 µM, the GI50 [6] was 0.514 µM and the TGI [6] was 11.7 µM. The GI50 [7] was 3.54 µM, the TGI [7] was 25.9 µM and the GI50 [8] was 0.39 µM. The TGI [8] was 2.97 µM, the GI50 [9] was 2.46 µM and the TGI [9] was 16.4 µM. The GI50 [10] was 0.37 µM and the TGI [10] was 3.61 µM.
`COc1cccc(C2c3cc4c(cc3OC(C)(N3CCCC3)C2C)OCO4)c1O` (configuration not stated) gave a TGI [1] of 15.3 µM, a TGI [2] of over 91.6 µM and a TGI [3] of 5.59 µM. The TGI [4] was 12.2 µM, the TGI [5] was 19.2 µM and the TGI [6] was 14 µM. The TGI [7] was 19.9 µM, the TGI [8] was 5.45 µM and the TGI [9] was 40 µM. The TGI [10] was 19.3 µM.
`Nc1c(C(=O)c2cccc(CCS(N)(=O)=O)c2)cnn1-c1ccc(F)cc1` gave a GI50 [1] of over 25 µM, a TGI [1] of over 25 µM and a GI50 [3] of over 25 µM. The TGI [3] was over 25 µM, the GI50 [4] was over 25 µM and the TGI [4] was over 25 µM. It also gave a GI50 [5] of over 25 µM, a TGI [5] of over 25 µM and a GI50 [6] of over 25 µM. The TGI [6] was over 25 µM, the GI50 [7] was over 19.7 µM and the TGI [7] was over 25 µM. It also gave a GI50 [8] of over 25 µM, a TGI [8] of over 25 µM and a GI50 [9] of over 25 µM. It also gave a TGI [9] of over 25 µM, a GI50 [10] of over 25 µM and a TGI [10] of over 25 µM.
`Cc1ccsc1C(=S)Nc1ccc(Cl)c(/C=N/OC(C)(C)C)c1` gave a TGI [1] of over 100 µM, a TGI [2] of over 100 µM and a TGI [3] of over 100 µM. The TGI [4] was 27.1 µM, the TGI [5] was 48.8 µM and the TGI [6] was over 100 µM. It also gave a TGI [7] of over 100 µM, a TGI [8] of over 100 µM and a TGI [9] of over 100 µM. It also gave a TGI [10] of 61.7 µM.
In the case of `COC([CH2][Hg][n]1cnc2c1c(=O)n(C)c(=O)n2C)CN1C(=O)c2ccccc2S1(=O)=O` (configuration not stated), the GI50 [1] is reported as over 100 µM, the TGI [1] is reported as over 100 µM and the GI50 [2] is reported as over 100 µM. For the same molecule, the TGI [2] was over 100 µM, the GI50 [3] was over 100 µM and the TGI [3] was over 100 µM. It also gave a GI50 [4] of over 100 µM, a TGI [4] of over 100 µM and a GI50 [5] of over 100 µM. For the same molecule, the TGI [5] was over 100 µM, the GI50 [6] was over 100 µM and the TGI [6] was over 100 µM. For the same molecule, the GI50 [7] was over 100 µM, the TGI [7] was over 100 µM and the GI50 [8] was over 100 µM. It also gave a TGI [8] of over 100 µM, a GI50 [9] of over 100 µM and a TGI [9] of over 100 µM. For the same molecule, the GI50 [10] was 77.2 µM and the TGI [10] was over 100 µM.
Molecule `COc1cc(/C=N\NC(=O)CN2CCN(c3cc4c(cc3F)c(=O)c(C(=O)N/N=C/c3cc(OC)c(OC)c(OC)c3)cn4C3CC3)CC2)cc(OC)c1OC` has a GI50 [1] of 0.495 µM, a TGI [1] of over 20 µM and a TGI [2] of over 100 µM. For the same molecule, the GI50 [3] was 0.308 µM, the GI50 [4] was 0.278 µM and the GI50 [5] was 0.176 µM. For the same molecule, the TGI [5] was 0.343 µM, the GI50 [6] was 0.429 µM and the TGI [6] was over 49.5 µM. For the same molecule, the GI50 [7] was 0.34 µM, the TGI [7] was 1.2 µM and the GI50 [8] was 0.214 µM. The TGI [8] was 0.458 µM, the GI50 [9] was 0.577 µM and the TGI [9] was over 88.5 µM. It also gave a GI50 [10] of 0.324 µM and a TGI [10] of over 100 µM.
`COC(=O)/C=C1\S/C(=N\NC(=O)c2cc3ccc2/C=C\c2ccc(cc2)/C=C\3)N(c2ccccc2)C1=O` showed a GI50 [1] of 5.11 µM, a TGI [1] of 35.3 µM and a GI50 [2] of 1.91 µM. It also gave a TGI [2] of 4.23 µM, a GI50 [3] of 3.49 µM and a TGI [3] of over 100 µM. For the same molecule, the GI50 [4] was 1.93 µM, the TGI [4] was 4.07 µM and the GI50 [5] was 1.69 µM. For the same molecule, the TGI [5] was 3.37 µM, the GI50 [6] was 3.27 µM and the TGI [6] was 15.4 µM. The GI50 [7] was 4.38 µM, the TGI [7] was 25.5 µM and the GI50 [8] was 1.8 µM. The TGI [8] was 3.61 µM, the GI50 [9] was 3.08 µM and the TGI [9] was over 100 µM. The GI50 [10] was 2.46 µM and the TGI [10] was over 100 µM.
In the case of `COc1ccc2c(c1)sc1nc(-c3ccccc3)c(-c3cccc4ccccc34)n12`, the GI50 [1] is reported as 0.767 µM, the TGI [1] is reported as over 31.9 µM and the GI50 [2] is reported as 1.61 µM. For the same molecule, the TGI [2] was over 100 µM, the TGI [3] was over 100 µM and the GI50 [4] was 0.353 µM. It also gave a TGI [4] of 4.38 µM, a GI50 [5] of 0.713 µM and a TGI [5] of over 100 µM. For the same molecule, the GI50 [6] was 0.475 µM, the TGI [6] was over 100 µM and the GI50 [7] was 0.604 µM. The TGI [7] was 5.28 µM, the GI50 [8] was 0.35 µM and the TGI [8] was 1.46 µM. It also gave a GI50 [9] of 0.771 µM, a TGI [9] of over 100 µM and a GI50 [10] of 0.323 µM. The TGI [10] was over 100 µM.
